Assays:
Assay type in all cases: cell-based, human
hPSC-CMs = test: Transmission electron microscopy of sarcomeres; conditions: day 30 hPSC-CMs from pI:C-treated progenitors
Excerpt: Differentiated H9-cTnT-GFP line hPSC-CMs at day 30 were washed twice with sodium phosphate buffer and fixed and maintained in sodium phosphate buffer with 4% paraformaldehyde (PFA) until pelleting and processing for TEM as previously described (Raval et al., 2015).

[1] = tested on: day 5 cardiac progenitors; test: RNA-seq differential gene expression, day 5 pI:C-primed vs untreated cardiac progenitors
Method: Day-5 cells from d3-5 untreated, TGFβ-treated, and pI:C-treated progenitors from the 19-9-11 iPS cell line were separately prepared as above for cell dissociation of progenitors from three different wells of each condition (for 9 total sequencing samples) and isolated as described above for RNA for RT-qPCR. rRNA-reduced Illumina TruSeq™ Stranded total RNA libraries were prepared and 1×100 bp single end sequencing was performed. To map and annotate RNA-seg data, STAR and HTSeq were used, respectively (Anders et al., 2015; Dobin and Gingeras, 2015). Annotated transcript counts were further processed with DeSEq2 for differential gene expression analysis (Love et al., 2014). Gene neighborhood analysis was performed with NEST (Jiang et al., 2015).

NFκB signaling = test: Western blot of NFκB and phosphorylated IκB in day 5 cardiac progenitors; conditions: pI:C days 3-5
Method: Frozen cell pellets from cardiac progenitors in the 19-9-11 iPS cell line were thawed and protein isolated in EBC lysis buffer (Boston BioProducts) supplemented with complete protease inhibitor tablets (Roche) rocking on ice for 1 hour to cause cell lysis. After the observation of lysis material and cell debris, protein/debris mixtures were centrifuged at >18,000×g for 15 minutes at 4° C. The protein-containing supernatant was quantified in a plate reader using the Biorad DC protein assay. 40 to 80 μg of protein was loaded in 6× βmercaptoethanol-containing Laemmli sample buffer (Biorad), boiled for 10 minutes at 95° C., then run on a 4-20% Criterion™ TGX™ gel (Biorad) for 30 minutes at 200 V. Proteins were then transferred at 10 V overnight at 4° C. to Immobilon-FL™ PVDF in a Criterion™ plate transfer cassette in Tris-Glycine transfer buffer (Biorad) with 20% methanol. Membranes were blocked for 1 hour at RT in Licor PBS blocking buffer, and then incubated with primary antibodies overnight 4° C. Antibodies were used at a dilution of 1:1000 (goat anti-Jag1, R&D systems) or 1:3000 (GAPDH, sigma) in Licor PBS blocking buffer. […] Licor secondary donkey anti-rabbit or anti-mouse antibodies were used at 1:15,000 for 1 hour at RT in Licor PBS blocking buffer, and after washing membranes were analyzed in a Licor Odyssey detection system. […]

[2] = day 5 progenitors, out of ~10,500 genes detected

Substance: polyinosinic-polycytidylic acid [pI:C]
- sarcomere ultrastructure (hPSC-CMs): longer, more regular and compact sarcomeres that contained I-bands
- number of genes significantly downregulated [1, 2]: 912 genes
- number of genes significantly upregulated [1, 2]: 514 genes
- log2FoldChange ([1]; gene ACTN3): 0.6193
- log2FoldChange ([1]; gene ADAMTS18): −1.365
- log2FoldChange ([1]; gene ADCY5): 0.9552
- log2FoldChange ([1]; gene ADCY8): 0.6342
- log2FoldChange ([1]; gene ALDH1A2): 1.067
- log2FoldChange ([1]; gene ANKRD18A): 1.148
- log2FoldChange ([1]; gene AQP3): 0.8778
- log2FoldChange ([1]; gene ARL15): 0.6459
- log2FoldChange ([1]; gene ARSI): 0.6043
- log2FoldChange ([1]; gene ATP8B4): −1.545
- log2FoldChange ([1]; gene BAI2): 0.6046
- log2FoldChange ([1]; gene C20orf103): 0.9674
- log2FoldChange ([1]; gene CD82): 1.288
- log2FoldChange ([1]; gene CDC25B): 0.6173
- log2FoldChange ([1]; gene CHRNA3): 0.6865
- log2FoldChange ([1]; gene CHRNB4): 0.6085
- log2FoldChange ([1]; gene CNTFR): 0.8038
- log2FoldChange ([1]; gene COL2A1): 0.9666
- log2FoldChange ([1]; gene COL19A1): −0.827
- log2FoldChange ([1]; gene CRNDE): 0.7347
- log2FoldChange ([1]; gene CTNNA2): 0.8199
- log2FoldChange ([1]; gene DKFZp686D0853): 0.782
- log2FoldChange ([1]; gene DKK1): 0.8084
- log2FoldChange ([1]; gene DLL3): 0.7285
- log2FoldChange ([1]; gene DPYSL5): 0.6254
- log2FoldChange ([1]; gene DUSP4): −1.302
- log2FoldChange ([1]; gene EPHB3): 0.6122
- log2FoldChange ([1]; gene ERBB4): −0.836
- log2FoldChange ([1]; gene EYA1): 0.927
- log2FoldChange ([1]; gene FAM98B): 1.008
- log2FoldChange ([1]; gene FHDC1): 0.6831
- log2FoldChange ([1]; gene FOXC1): 0.9077
- log2FoldChange ([1]; gene FOXC2): 0.8203
- log2FoldChange ([1]; gene FOXL1): 1.223
- log2FoldChange ([1]; gene GJA4): −0.828
- log2FoldChange ([1]; gene GPC3): 0.6647
- log2FoldChange ([1]; gene GPR55): −1.691
- log2FoldChange ([1]; gene HAND1): −1.326
- log2FoldChange ([1]; gene HAPLN3): 0.8468
- log2FoldChange ([1]; gene HEY1): 0.6706
- log2FoldChange ([1]; gene HLA-DQA2): 0.881
- log2FoldChange ([1]; gene IFI16): 1.021
- log2FoldChange ([1]; gene IP6K3): 0.6953
- log2FoldChange ([1]; gene IRX3): 0.7452
- log2FoldChange ([1]; gene IRX5): 0.9174
- log2FoldChange ([1]; gene JAG1): 1.453
- log2FoldChange ([1]; gene KCNH7): 0.8627
- log2FoldChange ([1]; gene KCNJ16): −1.26
- log2FoldChange ([1]; gene KIAA0319): 0.6142
- log2FoldChange ([1]; gene KIAA1324): 0.914
- log2FoldChange ([1]; gene LIX1): 0.6361
- log2FoldChange ([1]; gene MMP16): 0.9772
- log2FoldChange ([1]; gene MN1): 0.8939
- log2FoldChange ([1]; gene MT1X): 0.7867
- log2FoldChange ([1]; gene MXRA5): −1.313
- log2FoldChange ([1]; gene MYO7A): 0.815
- log2FoldChange ([1]; gene NEFL): 0.6647
- log2FoldChange ([1]; gene NELL2): 0.6696
- log2FoldChange ([1]; gene NETO1): 0.918
- log2FoldChange ([1]; gene NFKBIZ): 0.7246
- log2FoldChange ([1]; gene NKX3-1): 0.9735
- log2FoldChange ([1]; gene NPY): 1.254
- log2FoldChange ([1]; gene NR2F1): 0.7356
- log2FoldChange ([1]; gene NRCAM): −1.533
- log2FoldChange ([1]; gene NRXN1): 0.724
- log2FoldChange ([1]; gene PANX2): 1.107
- log2FoldChange ([1]; gene PAPPA): 0.9808
- log2FoldChange ([1]; gene PDE1B): 0.9995
- log2FoldChange ([1]; gene PDGFD): 0.6619
- log2FoldChange ([1]; gene PPFIA2): 0.8189
- log2FoldChange ([1]; gene PPFIBP2): −0.835
- log2FoldChange ([1]; gene PPM1J): 0.6364
- log2FoldChange ([1]; gene PPP1R1A): 1.171
- log2FoldChange ([1]; gene PRSS12): 0.817
- log2FoldChange ([1]; gene PRSS23): 0.9765
- log2FoldChange ([1]; gene PTN): 0.7536
- log2FoldChange ([1]; gene PTPN12): 0.7631
- log2FoldChange ([1]; gene RARB): 0.9291
- log2FoldChange ([1]; gene RASSF10): −1.321
- log2FoldChange ([1]; gene RERG): 0.6913
- log2FoldChange ([1]; gene RHBDL3): 0.7861
- log2FoldChange ([1]; gene RND3): 0.6053
- log2FoldChange ([1]; gene ROBO3): 0.6174
- log2FoldChange ([1]; gene SCGB1A1): 0.7028
- log2FoldChange ([1]; gene SIX1): 1.397
- log2FoldChange ([1]; gene SLC24A3): 0.7397
- log2FoldChange ([1]; gene SLC28A2): −1.472
- log2FoldChange ([1]; gene SPOCK3): 0.6961
- log2FoldChange ([1]; gene STAR): 0.7806
- log2FoldChange ([1]; gene SYT4): 0.9363
- log2FoldChange ([1]; gene SYT6): 0.6752
- log2FoldChange ([1]; gene TBX3): −1.289
- log2FoldChange ([1]; gene TMEM132E): 0.6361
- log2FoldChange ([1]; gene TMOD1): −1.407
- log2FoldChange ([1]; gene TMPRSS13): 0.6086
- log2FoldChange ([1]; gene TOX): 0.6437
- log2FoldChange ([1]; gene TRPA1): −1.599
- log2FoldChange ([1]; gene TXNIP): 0.805
- log2FoldChange ([1]; gene USP27X): 0.6946
- log2FoldChange ([1]; gene VEPH1): −1.26
- phosphorylated IκB (NFκB pathway activation) (NFκB signaling): showed expression of phosphorylated (inactivated) inhibitor IκB
